# According to patent publication EP0927045B1, “TUMOR HOMING MOLECULES, […] THEREFROM, AND METHODS OF USING SAME” (The Burnham Institute, priority 1996, dated 1998):
# Read-outs that look alike come from different tables or passages of the source. Where no end group is shown, it is not given here.
# Key:
# [1] = test system: MDA-MB-435 breast carcinoma; assay: Tumor therapy with doxorubicin/peptide conjugates in tumor bearing mice; format: in vivo, Balb c nu/nu mice; details: for effect on tumor growth: relative to treatment with the vehicle, alone
# Description: Female 2-month old Balb c nu/nu mice (Harlan Sprague Dawley; San Diego CA) were used for these studies and were cared for according to the Burnham Institute animal facility guidelines. […] Tumors were allowed to grow to a size of about 1 cm^3 (about 5% of the mouse's body weight) before starting the treatment experiments, except for the toxicity experiments as discussed below.
# Weekly doxorubicin/peptide conjugate or control treatments (5 µg/mouse/week of doxorubicin-equivalent) were administered intravenously. In some experiments, as indicated, a dose of 30 µg/mouse was administered every 3 weeks. Treatment with doxorubicin, alone, is referred to as "dox control" and treatment with doxorubicin conjugated to the non-tumor homing control peptide, […] As an additional control, in some experiments the tumor homing peptide was mixed with doxorubicin, without linking, and the mixture was administered to tumor bearing mice. Such treatment produced results that were not statistically different from those obtained with the above described dox controls.
# Mice were anesthetized with a tribromoethanol-based anesthetic mixture (AVERTIN; Papaioannou and Fox, Lab. Anim. 43:189-192 (1993)) before each treatment. Anesthetization facilitated the tail vein injections (final volume, 200 µl) and allowed precise serial three dimensional tumor size measurements. Tumor volume calculations were based on the equation for the volume of an ovaloid: V=4/3(nabc), where a, b, and c are 1/2 of the measured diameters in each of the three dimensions.
# [2] = test system: MDA-MB-435 human breast carcinoma cells; format: cell-based; details: for cell killing: agents not removed after 30 min, after 24 hr
# Description: (§1) (SEQ ID NO: 1) conjugate, or the doxorubicin/[sequence] (SEQ ID NO: 19; control) conjugate (0.1 to 10 µg/well of doxorubicin-equivalent) for either 30 min or overnight. Following incubation, the agents were removed by extensive washing with PBS, then fresh medium added and incubation was continued. The number of surviving cells was determined at 24 hours with crystal violet staining (see Koivunen et al., supra, 1994).
# breast tumor = assay: Viability of tumor cells plated from tumors of treated mice; format: in vivo; details: 30 pg equivalent iv, tumors removed five days after treatment, cell numbers 24 hours and 7 days after plating
# Excerpt: In addition, the viability of tumor cells obtained from tumors of mice treated with a tumor homing peptide/doxorubicin conjugate was compared to that of tumors from mice treated with free doxorubicin. In these experiments, breast tumor bearing mice were size matched with regard to the tumors, then treated intravenously with 30 pg equivalent of doxorubicin/[…] (SEQ ID NO: 1) or of free doxorubicin. Five days after treatment, the mice were euthanized and the tumors were removed. The tumor pairs were weighed and ground and the cell suspensions were plated (2 g tumor tissue per 150 mm plate).
# Cell numbers were determined at 24 hours and 7 days after plating. Viability of tumor cells from the tumors of mice receiving the doxorubicin/[…] (SEQ ID NO: 1) conjugate was about 3 fold less than cells from tumors of mice treated with the free doxorubicin.
# [3] = Acute toxicity in mice bearing extremely large tumors; format: in vivo; details: 200 µg/mouse; tumors about 25% of body weight
# Description: Acute toxicity studies also were performed. […] (SEQ ID NO: 1) conjugate. All of the mice treated with the doxorubicin/[…]
# [4] = test system: Human 435 breast carcinoma; assay: In vivo targeting of phage to a tumor, phage in organs quantitated; set-up: species or system nude mice
# Description: When the tumors attained a diameter of about 1 cm, phage expressing a specific RGD-containing peptide were administered to the tumor bearing mouse. Similar results TABLE 1
# 1 x 10^9 phage expressing the RGD-containing peptide, […] (SEQ ID NO: 1; see, Koivunen et al., supra, 1995) or control (insertless) phage were injected intravenously (iv) into the mice and allowed to circulate for 4 min. The mice then were snap frozen or perfused through the heart while under anesthesia, and various organs, including tumor, brain and kidney, were removed and the phage present in the organs was quantitated (see U.S. Patent No. 5,622,699; Pasqualini and Ruoslahti, supra, 1996).
# human Kaposi's sarcoma = assay: In vivo targeting of phage to a tumor; set-up: species or system mice; details: human Kaposi's sarcoma xenograft
# Description: Since the αvβ3 integrin is expressed by endothelial cells in angiogenic vasculature, experiments were performed to determine whether tumor vasculature that is undergoing angiogenesis can be targeted in vivo using methods as disclosed herein. Phage expressing the peptide, […] (SEQ ID NO: 1; see, Koivunen et al., supra, 1995), which is known to bind to the αvβ3 integrin, were injected into mice bearing tumors formed from human breast carcinoma cells, mouse melanoma cells or human Kaposi's sarcoma cells (see Example IV). The […] […] For example, in mice bearing tumors formed by implantation of human breast carcinoma cells, a twenty-to eighty-fold greater number of the […] (SEQ ID NO: 1) phage, as compared to unselected control phage, accumulated in the tumor.
# [5] = test system: MDA-MB-435 human breast carcinoma cells; assay: In vitro characterization of cytotoxicity, crystal violet staining; format: cell-based
# Description: as §1
# [6] = Acute toxicity in mice bearing extremely large tumors; format: in vivo; details: 200 µg/mouse; tumors about 25% of body weight; remark: listed apart in the source
# Description: Acute toxicity studies also were performed.
# [7] = 5 µg/mouse/week doxorubicin-equivalent
# [8] = 5 µg/mouse/week doxorubicin-equivalent iv
# [9] = 5 µg/mouse/week doxorubicin-equivalent iv, at necropsy, t test p<0.0001
# [10] = exposure 30 min, then agents removed, 0.1 to 10 µg/well doxorubicin-equivalent, surviving cells at 24 hours
molecule,measurement,setting,value
doxorubicin/CDCRGDCFC: CDCRGDCFC (SEQ ID NO: 1) coupled to doxorubicin using EDC and NHS (cysteine pairing not given here; also: doxorubicin coupled via EDC/NHS),gross examination: skin ulceration and tumor necrosis,[1]; [7],marked skin ulceration and tumor necrosis
same,survival compared with dox control and conjugate control,[1]; [8],survived beyond the time when the dox control and conjugate control mice had died
same,tumor size compared with controls,[1]; [8],significantly smaller tumors
same,pulmonary metastasis compared with dox control,[1]; [9],a lower incidence of pulmonary metastasis and fewer metastatic lesions
same,spread to regional lymph nodes compared with dox control,[1]; [9],less spread to regional lymph nodes
same,time alive after the dox control and conjugate control mice had died,[1]; dose escalation: 30 µg/mouse every three weeks for three cycles,more than 6 months
same,histopathological analysis of tumor vasculature compared with dox control,"[1]; mouse, in vivo",pronounced destruction of the vasculature
same,cell killing,[2],killed
same,cell death,[2]; [10],cell death was present
same,viability of tumor cells relative to cells from tumors of mice treated with free doxorubicin,breast tumor,about 3 fold less
same,survival after treatment,[3],survived for longer than one week
"doxorubicin/GACVFSIAHECGA: doxorubicin conjugated to the non-tumor homing control peptide, GACVFSIAHECGA (SEQ ID NO: 19) (cysteine pairing not given here; also: doxorubicin conjugated) [reference compound]",gross examination: skin ulceration and tumor necrosis,[1]; [7],no such signs were observed
same,treatment results compared with dox control,[1]; [8],not significantly different
same,effect on tumor growth,[1],essentially no effect on tumor growth
same,cell death,[2],cell death was present only in the cultures treated with the doxorubicin/[…]
same,cell killing,[2],killed
CLSGSLSC,selective homing of phage to the tumor,[4],also homed
same,selective homing of phage to the tumor,human Kaposi's sarcoma,also homed
COc1cccc2c1C(=O)c1c(O)c3c(c(O)c1C2=O)C[C@@](O)(C(=O)CO)C[C@@H]3O[C@H]1C[C@H](N)[C@H](O)[C@H](C)O1 [doxorubicin],gross examination: skin ulceration and tumor necrosis,[1]; 5 µg/mouse/week doxorubicin equivalent,no such signs were observed
same,effect on tumor growth,[1],essentially no effect on tumor growth
same,cell killing,"[5]; agents not removed after 30 min, after 24 hr",killed
same,cell death,[5]; [10],cell death was present only in the cultures treated with the doxorubicin/CDCRGDCFC
same,time to death after treatment,[6],≤ 48 h
